Our source for the IC50 values is patent US20090018131A1, “QUINAZOLINE DERIVATIVES AS P13 KINASE INHIBITORS” (priority 2007, published 2009).

Each structure is given as a SMILES string.

This assay concerns the target T1, PI3Kα (Homo sapiens, UniProt P42336).
T1 construct: His
In words: PI3K Alpha Leadseeker SPA Assay. It counts as biochemical. Particulars: in at least one experimental run; read-out: IC50 value against PI3Kα. As to the method: Compounds of the present invention were tested according to the following assays and found as inhibitors of PI3 kinases, particularly PI3Kα. The exemplified compounds were tested and found active against PI3Kα. The IC50's ranged from about 1 nM to 10 μM.
SPA imaging beads are microspheres containing scintillant which emit light in the red region of the visible spectrum. As a result, these beads are ideally suited to use with a CCD imager such as the Viewlux. The Leadseeker beads used in this system are polystyrene beads that have been coupled with polyethyleneimine. When added to the assay mixture, the beads absorb both the substrate (PIP2) and product (PIP3). Adsorbed P^33—PIP3 will cause an increase in signal, measured as ADUs (analog to digital units). This protocol details the use of the PEI-PS Leadseeker beads for assays using His-p110/p85 PI3K alpha.
Solid compounds are typically plated with 0.1 μl of 100% DMSO in all wells (except column 6 and 18) of a 384-well, flat bottom, low volume plate (Greiner 784075). The compounds are serially diluted (3-fold in 100% DMSO) across the plate from column 1 to column 12 and column 13 to column 24 and leave column 6 and 18 containing only DMSO to yield 11 concentrations for each test compound.
The assay buffer contains MOPS (pH 6.5), CHAPS, and DTT. PI3K alpha and PIP2 (L-alpha-D-myo-Phosphatidylinositol 4,5-bisphosphate [PI(4,5)P2]3-O-phospho linked, D(+)-sn-1,2-di-O-octanoylglyceryl, CellSignals # 901) are mixed and incubated in the plate with compound for 30 min prior to starting the reaction with the addition of P^33-ATP and MgCl2 (reagents added using Zoom). Enzyme-free wells (column 18) are typically done to determine the low control. PEI-PS Leadseeker beads in PBS/EDTA/CHAPS are added (by Multidrop) to quench the reaction, and the plates are allowed to incubate for at least one hour (typically overnight) before centrifugation. The signal is determined using a Viewlux detector and is then imported into curve fitting software (Activity Base) for construction of concentration response curves. The percent inhibition of activity was calculated relative to high controls (C1, 0.1 μl DMSO in column 6, rows A-P)) and low controls (C2, 5 μl of 40 uM PIP2 in buffer in column 18, rows A-P) using, 100*(1-(U1-C2)/(C1-C2)). The concentration of test compound yielding 50% inhibition was determined using the equation, y=((Vmax*x)/(K+x))+Y2, where “K” was equal to the IC50. The IC50 values were converted to pIC50 values, i.e., −log IC50 in Molar concentration.

T1 sequence (P42336 whole entry, species assumed): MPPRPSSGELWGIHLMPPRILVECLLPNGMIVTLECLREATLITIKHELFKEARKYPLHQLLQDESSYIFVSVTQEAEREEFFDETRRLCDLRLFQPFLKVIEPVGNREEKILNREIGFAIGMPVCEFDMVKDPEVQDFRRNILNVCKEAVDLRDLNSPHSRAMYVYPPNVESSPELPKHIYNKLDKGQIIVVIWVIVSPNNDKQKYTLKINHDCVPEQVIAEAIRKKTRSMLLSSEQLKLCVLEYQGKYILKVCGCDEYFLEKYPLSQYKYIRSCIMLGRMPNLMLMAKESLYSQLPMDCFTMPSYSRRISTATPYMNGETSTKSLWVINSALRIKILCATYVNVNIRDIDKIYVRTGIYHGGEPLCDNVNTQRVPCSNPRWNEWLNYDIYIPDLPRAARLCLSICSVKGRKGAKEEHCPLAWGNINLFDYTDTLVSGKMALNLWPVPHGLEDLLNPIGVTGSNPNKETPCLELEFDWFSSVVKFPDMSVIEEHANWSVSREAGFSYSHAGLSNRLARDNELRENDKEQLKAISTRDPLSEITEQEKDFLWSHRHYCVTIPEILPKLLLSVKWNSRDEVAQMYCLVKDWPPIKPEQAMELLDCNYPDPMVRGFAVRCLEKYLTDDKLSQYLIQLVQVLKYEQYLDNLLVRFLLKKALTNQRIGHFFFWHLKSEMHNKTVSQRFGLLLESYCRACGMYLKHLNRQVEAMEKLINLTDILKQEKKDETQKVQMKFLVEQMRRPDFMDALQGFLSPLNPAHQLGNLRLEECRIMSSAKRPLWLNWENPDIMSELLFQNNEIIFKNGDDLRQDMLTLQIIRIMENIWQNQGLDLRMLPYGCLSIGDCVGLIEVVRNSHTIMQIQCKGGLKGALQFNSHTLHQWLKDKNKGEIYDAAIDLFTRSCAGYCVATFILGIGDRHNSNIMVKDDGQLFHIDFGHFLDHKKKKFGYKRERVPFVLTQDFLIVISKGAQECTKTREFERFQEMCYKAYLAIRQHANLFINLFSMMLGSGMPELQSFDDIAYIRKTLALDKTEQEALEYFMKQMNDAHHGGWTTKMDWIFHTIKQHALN
T1 sequence (P27986 whole entry partner, species assumed): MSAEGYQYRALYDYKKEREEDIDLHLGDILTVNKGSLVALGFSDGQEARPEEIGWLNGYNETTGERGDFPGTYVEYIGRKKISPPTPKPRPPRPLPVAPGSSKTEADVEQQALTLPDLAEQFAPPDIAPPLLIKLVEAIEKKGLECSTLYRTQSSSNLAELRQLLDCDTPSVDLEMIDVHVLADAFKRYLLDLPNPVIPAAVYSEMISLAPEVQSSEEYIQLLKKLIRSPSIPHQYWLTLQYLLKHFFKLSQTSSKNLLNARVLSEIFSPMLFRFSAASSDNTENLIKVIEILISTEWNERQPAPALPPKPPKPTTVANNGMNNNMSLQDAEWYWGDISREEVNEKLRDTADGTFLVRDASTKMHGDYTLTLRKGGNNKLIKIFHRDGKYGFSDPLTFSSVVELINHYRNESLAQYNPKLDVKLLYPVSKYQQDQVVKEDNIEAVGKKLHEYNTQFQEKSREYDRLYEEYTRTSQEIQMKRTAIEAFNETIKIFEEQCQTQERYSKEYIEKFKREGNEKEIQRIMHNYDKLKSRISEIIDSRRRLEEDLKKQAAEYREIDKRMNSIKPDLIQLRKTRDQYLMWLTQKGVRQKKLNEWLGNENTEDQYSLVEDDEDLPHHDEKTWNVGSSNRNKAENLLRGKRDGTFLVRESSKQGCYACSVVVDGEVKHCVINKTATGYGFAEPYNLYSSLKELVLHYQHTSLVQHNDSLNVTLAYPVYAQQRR

As to `CN(C)S(=O)(=O)c1cc(-c2ccc3nc(NCCO)nc(-c4ccncc4)c3c2)cnc1N` [Example 1, 2-amino-5-[2-[(2-hydroxyethyl)amino]-4-(4-pyridinyl)-6-quinazolinyl]-N,N-dimethyl-3-pyridinesulfonamide], the half-inhibitory concentration (IC50) worked out at 7.9 nM.
In the case of `COc1ccc(Nc2ncnc3ccc(-c4cncc(NS(=O)(=O)c5ccc(F)cc5F)c4)cc23)cc1Cl` [Example 73, N-[5-(4-{[3-chloro-4-(methyloxy)phenyl]amino}-6-quinazolinyl)-3-pyridinyl]-2,4-difluorobenzenesulfonamide] it was 2.5 nM; in that of `CCN1CCN(c2ncnc3ccc(-c4cncc(NS(=O)(=O)c5ccc(F)cc5F)c4)cc23)CC1=O` [Example 61, N-{5-[4-(4-ethyl-3-oxo-1-piperazinyl)-6-quinazolinyl]-3-pyridinyl}-2,4-difluorobenzenesulfonamide], 1 nM.
In the case of `NS(=O)(=O)c1cncc(-c2ccc3ncnc(N4CCCCC4)c3c2)c1` [Example 16, 5-[4-(1-piperidinyl)-6-quinazolinyl]-3-pyridinesulfonamide] it was 40 nM.
In the case of `CC(=O)Nc1nc(-c2ccncc2)c2cc(-c3cnc(Cl)c(NS(=O)(=O)c4ccccc4)c3)ccc2n1` [Example 6, N-[6-{6-chloro-5-[(phenylsulfonyl)amino]-3-pyridinyl}-4-(4-pyridinyl)-2-quinazolinyl]acetamide] it was 1.4 nM; in that of `c1nc(N2CCOCC2)c2cc(-c3cnc4[nH]ccc4c3)ccc2n1` [Example 15, 4-(4-morpholinyl)-6-(1H-pyrrolo[2,3-b]pyridin-5-yl)quinazoline], 50 nM; in that of `OCc1cccc(Nc2nc(-c3ccncc3)c3cc(-c4cnc5[nH]ccc5c4)ccc3n2)c1` [Example 2, (3-{[4-(4-pyridinyl)-6-(1H-pyrrolo[2,3-b]pyridin-5-yl)-2-quinazolinyl]amino}phenyl)methanol], 100 nM.
